Data published in PubChem BioAssay (NCI).
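In this assay, cells in 96-well plates receive the compound at five concentrations for 48 hours. Endpoints are linearly interpolated between the surrounding concentrations. The concentration for full growth arrest is given as TGI.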

What was measured:
Assay in all cases: NCI tumour cell line growth inhibition, 48 h
[1] = system: 786-0 renal
[2] = system: A549 NSCLC
[3] = system: ACHN renal
[4] = system: CAKI-1 renal
[5] = system: CCRF-CEM leukemia
[6] = system: COLO 205 colon
[7] = system: DLD-1 colon
[8] = system: DMS 114 small cell lung
[9] = system: DMS 273 small cell lung
[10] = system: EKVX NSCLC
[11] = system: HCC-2998 colon
[12] = system: HCT-116 colon
[13] = system: HCT-15 colon
[14] = system: HL-60(TB) leukemia
[15] = system: HOP-18 NSCLC
[16] = system: HOP-62 NSCLC
[17] = system: HOP-92 NSCLC
[18] = system: HT29 colon
[19] = system: IGROV1 ovarian
[20] = system: K-562 leukemia
[21] = system: KM12 colon
[22] = system: KM20L2 colon
[23] = system: LOX IMVI melanoma
[24] = system: LXFL 529 NSCLC
[25] = system: M14 melanoma
[26] = system: M19-MEL melanoma
[27] = system: MALME-3M melanoma
[28] = system: MOLT-4 leukemia
[29] = system: NCI-H226 lung
[30] = system: NCI-H23 lung
[31] = system: NCI-H460 lung
[32] = system: NCI-H522 lung
[33] = system: OVCAR-3 ovarian
[34] = system: OVCAR-4 ovarian
[35] = system: OVCAR-8 ovarian
[36] = system: RPMI-8226 leukemia
[37] = system: RXF 393 renal
[38] = system: SF-268 CNS
[39] = system: SF-295 CNS
[40] = system: SF-539 CNS
[41] = system: SK-MEL-2 melanoma
[42] = system: SK-MEL-28 melanoma
[43] = system: SK-MEL-5 melanoma
[44] = system: SK-OV-3 ovarian
[45] = system: SN12C renal
[46] = system: SNB-19 CNS
[47] = system: SNB-75 CNS
[48] = system: SNB-78 CNS
[49] = system: SW-620 colon
[50] = system: TK-10 renal
[51] = system: U251 CNS
[52] = system: UACC-257 melanoma
[53] = system: UACC-62 melanoma
[54] = system: UO-31 renal
[55] = system: XF 498 CNS
[56] = system: A498 renal
[57] = system: BT-549 breast
[58] = system: DU-145 prostate
[59] = system: HS 578T breast
[60] = system: MCF7 breast
[61] = system: MDA-MB-231 breast
[62] = system: OVCAR-5 ovarian
[63] = system: PC-3 prostate
[64] = system: SR leukemia
[65] = system: T-47D breast

## COc1cc2cc3c4c(cc(OC)c(OC)c4c2cc1OC)CCN3
[1]
  TGI: > 100 µM
[2]
  TGI: > 100 µM
[3]
  TGI: > 100 µM
[4]
  TGI: > 100 µM
[5]
  TGI: 77.2 µM
[6]
  TGI: 63.2 µM
[7]
  TGI: 73.8 µM
[8]
  TGI: > 100 µM
[9]
  TGI: > 100 µM
[10]
  TGI: > 100 µM
[11]
  TGI: > 100 µM
[12]
  TGI: > 100 µM
[13]
  TGI: > 100 µM
[14]
  TGI: 42.3 µM
[15]
  TGI: > 100 µM
[16]
  TGI: > 100 µM
[17]
  TGI: > 100 µM
[18]
  TGI: 96.2 µM
[19]
  TGI: > 100 µM
[20]
  TGI: 81.6 µM
[21]
  TGI: > 100 µM
[22]
  TGI: 88.5 µM
[23]
  TGI: > 100 µM
[24]
  TGI: > 100 µM
[25]
  TGI: > 100 µM
[26]
  TGI: 25.6 µM
[27]
  TGI: > 100 µM
[28]
  TGI: > 100 µM
[29]
  TGI: > 100 µM
[30]
  TGI: > 100 µM
[31]
  TGI: 82.6 µM
[32]
  TGI: > 100 µM
[33]
  TGI: > 100 µM
[34]
  TGI: > 100 µM
[35]
  TGI: > 100 µM
[36]
  TGI: 68 µM
[37]
  TGI: 85.8 µM
[38]
  TGI: > 100 µM
[39]
  TGI: > 100 µM
[40]
  TGI: 51.1 µM
[41]
  TGI: 59.7 µM
[42]
  TGI: > 100 µM
[43]
  TGI: > 100 µM
[44]
  TGI: > 100 µM
[45]
  TGI: > 100 µM
[46]
  TGI: > 100 µM
[47]
  TGI: > 100 µM
[48]
  TGI: > 100 µM
[49]
  TGI: 51.2 µM
[50]
  TGI: > 100 µM
[51]
  TGI: > 100 µM
[52]
  TGI: > 100 µM
[53]
  TGI: 19.5 µM
[54]
  TGI: > 100 µM
[55]
  TGI: > 100 µM

## COCN1C(=O)C2CC(/C=C/C(N)=O)=CN2C(=O)c2ccccc21 (configuration not stated)
[1]
  TGI: > 100 µM
[2]
  TGI: > 100 µM
[5]
  TGI: > 100 µM
[6]
  TGI: > 100 µM
[7]
  TGI: > 100 µM
[8]
  TGI: > 100 µM
[9]
  TGI: > 100 µM
[10]
  TGI: > 100 µM
[11]
  TGI: > 100 µM
[12]
  TGI: > 100 µM
[14]
  TGI: > 100 µM
[15]
  TGI: > 100 µM
[16]
  TGI: > 100 µM
[18]
  TGI: > 100 µM
[19]
  TGI: > 100 µM
[20]
  TGI: > 100 µM
[21]
  TGI: > 100 µM
[22]
  TGI: > 100 µM
[23]
  TGI: > 100 µM
[24]
  TGI: > 100 µM
[25]
  TGI: > 100 µM
[26]
  TGI: > 100 µM
[28]
  TGI: > 100 µM
[29]
  TGI: > 100 µM
[30]
  TGI: > 100 µM
[31]
  TGI: > 100 µM
[32]
  TGI: > 100 µM
[33]
  TGI: > 100 µM
[34]
  TGI: > 100 µM
[35]
  TGI: > 100 µM
[36]
  TGI: > 100 µM
[37]
  TGI: > 100 µM
[38]
  TGI: > 100 µM
[39]
  TGI: > 100 µM
[40]
  TGI: > 100 µM
[42]
  TGI: > 100 µM
[43]
  TGI: > 100 µM
[44]
  TGI: > 100 µM
[45]
  TGI: > 100 µM
[46]
  TGI: > 100 µM
[47]
  TGI: > 100 µM
[48]
  TGI: > 100 µM
[49]
  TGI: > 100 µM
[50]
  TGI: > 100 µM
[51]
  TGI: > 100 µM
[53]
  TGI: > 100 µM
[55]
  TGI: > 100 µM

## COc1cc2c(c(OC)c1OC)-c1cccc(=O)cc1C(NC(C)=O)CC2 (configuration not stated)
[1]
  TGI: > 63.1 µM
[56]
  TGI: 14.7 µM
[2]
  TGI: > 100 µM
[3]
  TGI: > 100 µM
[57]
  TGI: > 100 µM
[4]
  TGI: > 100 µM
[5]
  TGI: > 100 µM
[6]
  TGI: 1.79 µM
[8]
  TGI: 0.391 µM
[9]
  TGI: > 100 µM
[58]
  TGI: > 100 µM
[10]
  TGI: > 100 µM
[11]
  TGI: > 13.6 µM
[12]
  TGI: 25.6 µM
[13]
  TGI: > 100 µM
[14]
  TGI: 0.472 µM
[15]
  TGI: > 100 µM
[16]
  TGI: > 39.6 µM
[17]
  TGI: 4.92 µM
[59]
  TGI: > 100 µM
[19]
  TGI: > 100 µM
[20]
  TGI: > 100 µM
[21]
  TGI: 1.75 µM
[22]
  TGI: 1.86 µM
[23]
  TGI: > 100 µM
[24]
  TGI: > 100 µM
[25]
  TGI: > 67.8 µM
[26]
  TGI: > 100 µM
[27]
  TGI: > 100 µM
[60]
  TGI: > 100 µM
[61]
  TGI: > 100 µM
[28]
  TGI: > 100 µM
[29]
  TGI: 14.8 µM
[30]
  TGI: 11.1 µM
[31]
  TGI: 3.47 µM
[32]
  TGI: 0.203 µM
[33]
  TGI: 1.16 µM
[34]
  TGI: > 100 µM
[62]
  TGI: > 100 µM
[35]
  TGI: > 16.7 µM
[63]
  TGI: > 100 µM
[36]
  TGI: > 100 µM
[37]
  TGI: 0.952 µM
[38]
  TGI: > 100 µM
[39]
  TGI: 0.267 µM
[40]
  TGI: 0.229 µM
[41]
  TGI: > 24.8 µM
[42]
  TGI: > 100 µM
[43]
  TGI: 3.16 µM
[45]
  TGI: > 100 µM
[46]
  TGI: > 100 µM
[48]
  TGI: > 100 µM
[64]
  TGI: > 100 µM
[49]
  TGI: > 100 µM
[65]
  TGI: > 100 µM
[50]
  TGI: > 100 µM
[51]
  TGI: > 100 µM
[52]
  TGI: > 100 µM
[53]
  TGI: > 100 µM
[54]
  TGI: > 100 µM
[55]
  TGI: 12.3 µM

## Nc1ncnc2c1ncn2C1OC(CSCc2ccc(Cl)cc2)C(O)C1O (configuration not stated)
[1]
  TGI: > 100 µM
[56]
  TGI: 96 µM
[2]
  TGI: > 100 µM
[3]
  TGI: > 100 µM
[4]
  TGI: 54 µM
[5]
  TGI: > 100 µM
[6]
  TGI: > 100 µM
[7]
  TGI: > 100 µM
[8]
  TGI: 59.7 µM
[9]
  TGI: 84.7 µM
[10]
  TGI: > 100 µM
[11]
  TGI: > 100 µM
[12]
  TGI: 61.4 µM
[13]
  TGI: > 100 µM
[14]
  TGI: 62.2 µM
[15]
  TGI: > 100 µM
[16]
  TGI: 64.3 µM
[17]
  TGI: 32.3 µM
[18]
  TGI: > 100 µM
[19]
  TGI: > 100 µM
[20]
  TGI: > 100 µM
[21]
  TGI: 77.4 µM
[22]
  TGI: > 100 µM
[23]
  TGI: > 100 µM
[24]
  TGI: 48.3 µM
[25]
  TGI: 36.7 µM
[26]
  TGI: > 100 µM
[27]
  TGI: > 100 µM
[28]
  TGI: 46 µM
[30]
  TGI: 71.5 µM
[31]
  TGI: > 100 µM
[33]
  TGI: > 100 µM
[34]
  TGI: > 100 µM
[62]
  TGI: > 100 µM
[35]
  TGI: > 100 µM
[36]
  TGI: 67.3 µM
[37]
  TGI: 73.8 µM
[38]
  TGI: > 100 µM
[39]
  TGI: > 100 µM
[40]
  TGI: > 100 µM
[41]
  TGI: 68.7 µM
[43]
  TGI: 90.9 µM
[44]
  TGI: > 100 µM
[45]
  TGI: > 100 µM
[46]
  TGI: > 100 µM
[47]
  TGI: 58.5 µM
[48]
  TGI: > 100 µM
[49]
  TGI: > 100 µM
[50]
  TGI: > 100 µM
[51]
  TGI: > 100 µM
[52]
  TGI: > 100 µM
[53]
  TGI: > 100 µM
[54]
  TGI: 56 µM
[55]
  TGI: 85.9 µM
